The numbers were not newly measured in patent US6420311B1, “Polyether diamine—based surfactant adjuvants and compositions thereof” (Huntsman Petrochemical Corporation, priority 1999, dated 2002), which cites them from elsewhere.

For this data set the following is noted: free acid form.

The structures appear in SMILES notation.

On to `O=C(O)CNCP(=O)(O)O` [glyphosate, N-phosphonomethylglycine], for which the water solubility result was “low”.
